Assay results as given in PubChem BioAssay (NCI).
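96-well plates; 48 h exposure; 5 concentrations. Endpoints by linear interpolation between flanking doses. Not reached: highest tested concentration assigned. GI50 marks 50% less growth. TGI denotes the concentration required for complete inhibition of growth.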

Assays:
Assay in all cases: inhibition of tumour cell growth, NCI panel, 48 h
OVCAR-5 ovarian = test system: OVCAR-5 ovarian
MOLT-4 leukemia = test system: MOLT-4 leukemia
HCC-2998 colon = test system: HCC-2998 colon
SK-MEL-2 melanoma = test system: SK-MEL-2 melanoma
EKVX NSCLC = test system: EKVX NSCLC
SK-MEL-28 melanoma = test system: SK-MEL-28 melanoma
SK-OV-3 ovarian = test system: SK-OV-3 ovarian
OVCAR-4 ovarian = test system: OVCAR-4 ovarian
MDA-MB-435 = test system: MDA-MB-435
ACHN renal = test system: ACHN renal
A498 renal = test system: A498 renal
SF-268 CNS = test system: SF-268 CNS
TK-10 renal = test system: TK-10 renal
NCI/ADR-RES ovarian = test system: NCI/ADR-RES ovarian
OVCAR-8 ovarian = test system: OVCAR-8 ovarian
HT29 colon = test system: HT29 colon
OVCAR-3 ovarian = test system: OVCAR-3 ovarian
HS 578T breast = test system: HS 578T breast
SW-620 colon = test system: SW-620 colon
786-0 renal = test system: 786-0 renal
MALME-3M melanoma = test system: MALME-3M melanoma
SN12C renal = test system: SN12C renal
KM12 colon = test system: KM12 colon
DU-145 prostate = test system: DU-145 prostate
SR leukemia = test system: SR leukemia
SNB-19 CNS = test system: SNB-19 CNS
RXF 393 renal = test system: RXF 393 renal
BT-549 breast = test system: BT-549 breast
MDA-MB-231 breast = test system: MDA-MB-231 breast
IGROV1 ovarian = test system: IGROV1 ovarian
LOX IMVI melanoma = test system: LOX IMVI melanoma
HOP-62 NSCLC = test system: HOP-62 NSCLC
SK-MEL-5 melanoma = test system: SK-MEL-5 melanoma
UACC-257 melanoma = test system: UACC-257 melanoma
UACC-62 melanoma = test system: UACC-62 melanoma
A549 NSCLC = test system: A549 NSCLC
HCT-15 colon = test system: HCT-15 colon
RPMI-8226 leukemia = test system: RPMI-8226 leukemia
NCI-H226 lung = test system: NCI-H226 lung
T-47D breast = test system: T-47D breast
CAKI-1 renal = test system: CAKI-1 renal
PC-3 prostate = test system: PC-3 prostate
NCI-H23 lung = test system: NCI-H23 lung
HCT-116 colon = test system: HCT-116 colon
K-562 leukemia = test system: K-562 leukemia
MCF7 breast = test system: MCF7 breast
NCI-H460 lung = test system: NCI-H460 lung
CCRF-CEM leukemia = test system: CCRF-CEM leukemia
HL-60(TB) leukemia = test system: HL-60(TB) leukemia
SF-295 CNS = test system: SF-295 CNS
UO-31 renal = test system: UO-31 renal
COLO 205 colon = test system: COLO 205 colon
SNB-75 CNS = test system: SNB-75 CNS
M14 melanoma = test system: M14 melanoma
NCI-H522 lung = test system: NCI-H522 lung
HOP-92 NSCLC = test system: HOP-92 NSCLC
U251 CNS = test system: U251 CNS

SMILES: CC(C)(C#N)c1cc(C(=O)Nc2cc(Nc3ncccc3-c3ncnc4nc[nH]c34)ccc2F)cc(C(F)(F)F)c1
- GI50 (OVCAR-5 ovarian): 0.224 µM
- TGI (OVCAR-5 ovarian): > 2.86 µM
- TGI (MOLT-4 leukemia): > 6.2 µM
- GI50 (HCC-2998 colon): 0.372 µM
- GI50 (SK-MEL-2 melanoma): 0.315 µM
- TGI (SK-MEL-2 melanoma): > 2.08 µM
- TGI (EKVX NSCLC): > 6.56 µM
- GI50 (SK-MEL-28 melanoma): 0.107 µM
- GI50 (SK-OV-3 ovarian): > 2.38 µM
- TGI (SK-OV-3 ovarian): > 10 µM
- GI50 (OVCAR-4 ovarian): 1.3 µM
- TGI (OVCAR-4 ovarian): > 2.93 µM
- GI50 (MDA-MB-435): 0.217 µM
- TGI (MDA-MB-435): > 3.22 µM
- GI50 (ACHN renal): 1.2 µM
- TGI (ACHN renal): > 3.41 µM
- GI50 (A498 renal): 0.126 µM
- TGI (A498 renal): 0.844 µM
- TGI (SF-268 CNS): > 10 µM
- TGI (TK-10 renal): > 4.17 µM
- GI50 (NCI/ADR-RES ovarian): 1.62 µM
- TGI (NCI/ADR-RES ovarian): > 10 µM
- TGI (OVCAR-8 ovarian): > 10 µM
- GI50 (HT29 colon): 0.132 µM
- TGI (OVCAR-3 ovarian): > 4.1 µM
- GI50 (HS 578T breast): 0.919 µM
- TGI (HS 578T breast): > 2.33 µM
- GI50 (SW-620 colon): 0.58 µM
- TGI (SW-620 colon): > 10 µM
- TGI (786-0 renal): > 6.73 µM
- GI50 (MALME-3M melanoma): 0.0648 µM
- TGI (MALME-3M melanoma): 0.234 µM
- GI50 (SN12C renal): 1.42 µM
- TGI (SN12C renal): > 10 µM
- GI50 (KM12 colon): 1.18 µM
- TGI (KM12 colon): > 2.09 µM
- GI50 (DU-145 prostate): > 2.01 µM
- TGI (DU-145 prostate): > 10 µM
- TGI (SR leukemia): > 10 µM
- GI50 (SNB-19 CNS): > 2.15 µM
- TGI (SNB-19 CNS): > 10 µM
- TGI (RXF 393 renal): > 2.89 µM
- TGI (BT-549 breast): > 2.3 µM
- GI50 (MDA-MB-231 breast): 0.27 µM
- GI50 (IGROV1 ovarian): 0.521 µM
- TGI (IGROV1 ovarian): > 2.59 µM
- GI50 (LOX IMVI melanoma): 0.38 µM
- TGI (LOX IMVI melanoma): 2.41 µM
- GI50 (HOP-62 NSCLC): 0.463 µM
- TGI (HOP-62 NSCLC): > 10 µM
- GI50 (SK-MEL-5 melanoma): 0.589 µM
- TGI (SK-MEL-5 melanoma): > 1.98 µM
- GI50 (UACC-257 melanoma): 0.112 µM
- TGI (UACC-257 melanoma): > 3.21 µM
- GI50 (UACC-62 melanoma): 0.0871 µM
- TGI (UACC-62 melanoma): 0.788 µM
- TGI (A549 NSCLC): > 10 µM
- TGI (HCT-15 colon): > 2.22 µM
- GI50 (RPMI-8226 leukemia): 4.84 µM
- TGI (RPMI-8226 leukemia): > 10 µM
- GI50 (NCI-H226 lung): 0.289 µM
- TGI (NCI-H226 lung): > 6.4 µM
- TGI (T-47D breast): > 3.23 µM
- GI50 (CAKI-1 renal): 1.14 µM
- TGI (CAKI-1 renal): > 3.55 µM
- TGI (PC-3 prostate): > 4.27 µM
- GI50 (NCI-H23 lung): 0.514 µM
- TGI (NCI-H23 lung): > 4.14 µM
- GI50 (HCT-116 colon): 0.242 µM
- TGI (HCT-116 colon): > 2.35 µM
- GI50 (K-562 leukemia): 0.345 µM
- TGI (K-562 leukemia): > 10 µM
- TGI (MCF7 breast): > 4.6 µM
- GI50 (NCI-H460 lung): 1.18 µM
- TGI (NCI-H460 lung): > 3.27 µM
- TGI (CCRF-CEM leukemia): > 10 µM
- GI50 (HL-60(TB) leukemia): 0.526 µM
- TGI (HL-60(TB) leukemia): > 10 µM
- TGI (SF-295 CNS): > 3.73 µM
- GI50 (UO-31 renal): 0.189 µM
- GI50 (COLO 205 colon): 0.131 µM
- TGI (SNB-75 CNS): > 10 µM
- GI50 (M14 melanoma): 0.101 µM
- TGI (M14 melanoma): 0.862 µM
- TGI (NCI-H522 lung): > 6.56 µM
- GI50 (HOP-92 NSCLC): 0.255 µM
- TGI (HOP-92 NSCLC): 1.78 µM
- TGI (U251 CNS): > 10 µM
